Data taken from patent publication US20040010001A1, “Methods and compositions for modulating cell proliferation and cell death” (priority 1999, published 2004).
Where two headings read alike, the source gives them in different places.

Columns and labels:
[1] = tested on: human prostate cancer PC3 cells; assay: Differential display of genes altered by bFGF treatment; type: cell-based
Method: Differential display was used to identify the down-stream genes that are involved in the bFGF-induced multidrug resistance. […] By this method, the genes that were altered by bFGF treatment in PC3 cells but not in FaDu cells were identified. The identified genes are likely to be associated with the bFGF-induced multidrug resistance.
For differential display, total RNA was isolated from the cells and reverse-transcripted in single strand cDNA. PCR was performed using a pair of T and P primers. […] Five of these bands were reproducibly altered in PC3 cells, but not in FaDu cells. These bands were cut from the gels, reamplified and cloned into pGEM-T vector. Nine different clones were identified and sequenced. The gene sequence was compared to the data in the NCBI GenBank. […] Primers were synthesized for drug resistant cancer cells. Among the nine clones, five were altered reproducibly by bFGF treatment while bFGF had no effect on the remaining four clones. The expression of two of the known genes, TSC22 and VEGF, were increased by 20 to 40%, whereas the expression of the three new genes (temporarily named FSC-1, FSC-2, and FSC-3) were induced by 65%, 300%, and 40%. TSC22 and VEGF are not known to be regulated by bFGF.

Human prostate PC3 = assay: FGF-induced resistance, inhibition of BrdU incorporation; type: cell-based; settings: cell lines derived from solid tumors; 1 ng/ml r-aFGF plus 1 ng/ml r-bFGF vs 50 ng/ml r-bFGF alone
Method: Prior to drug treatment, cells were incubated for 4 days with tumor CM or with r-aFGF ad/or r-bFGF-containing medium, supplemented with 1% FBS (final protein concentration adjusted to 2 mg/ml). The medium was renewed every other day.
The antiproliferative drug effect in histocultures was measured as inhibition of ^3H-thymidine incorporation quantified by autoradiography (Yen, W. C. et al. (1996) Pharm. Res. 13:1305-1312) and, for monolayers, as inhibition of BrdU incorporation or as reduction of total proteins by the sulforhodamine B assay (Au, J. L.-S. et al. (1998) Cancer Res. 58:2141-2148). For the latter, the two assays yielded qualitatively similar results. Cell kill induced by 96-hour drug treatment was monitored by the release of LDH into the culture medium. LDH activity was monitored by the conversion of tetrazolium to formazan (detected at 490 nm).
The experimental conditions are described briefly below. Cells were pretreated with human recombinant r-aFGF and/or r-bFGF for 96 hours and then with drugs for 96 hours. For the studies on cells derived from the human prostate, lung, pharynx, colon and breast cancer cells, the drug effect was determined by the inhibition of BrdU incorporation. For the study on the human leukemic cells, the drug effect was measured by the MTT assay, which measures the number of metabolically active cells (Alley, M. C. et al (1988) Cancer Res 48:589-601).

rat MAT-LyLu cells = assay: Restoration of resistance by recombinant FGF in FGF-immunoprecipitated CM; type: cell-based
Method: The study was performed using rat MAT-LyLu cells. The reversal in CM-induced resistance was detected by measuring the changes in BrdU incorporation in treated samples relative to control samples. The source of CM was lung histocultures for both aFGF and bFGF experiments. The study used two controls: no CM (left solid curves, empty circles); with CM (right solid curves, empty squares). Upper left: CM minus […] (filled square); CM minus aFGF plus r-aFGF (filled circles, overlaps with the right CM-control curve). Upper right: CM minus bFGF (filled square, overlaps with the left control curve); CM minus bFGF plus r-bFGF (filled circle, overlaps with the right CM control curve). Lower left: Both the CM minus aFGF and bFGF (filled square) and the CM minus aFGF and bFGF plus aFGF (filled circle) curves overlap with the left control curve. Lower center: CM minus aFGF and bFGF (filled square, overlaps with left control curve); CM minus aFGF and bFGF plus r-bFGF (filled circle). Lower right: CM minus aFGF and bFGF (filled square, overlaps with left control curve); CM minus aFGF and bFGF plus r-aFGF and r-bFGF (filled circle, overlaps with the right CM-control curve).
aFGF or bFGF was immunoprecipitated with their respective monoclonal antibody (1 microgram/ml), in the presence of Protein G PLUS/protein A agarose (Oncogene). This procedure reduced the bFGF level in the original CM to below the detection limit of 5 pg/ml by the ELISA (Oncogene), and the aFGF level in the concentrated CM to below the detection limit by Western blotting.
The third study determined whether aFGF and/or bFGF are required for the resistance. Endogenous aFGF and/or bFGF were removed from the active CM by immunoprecipitation, and then reconstituted the CM using recombinant proteins. […] The fifth study confirmed that aFGF and bFGF were the main cause of chemoresistance, by using only r-aFGF and r-bFGF (i.e., without the immunoprecipitated CM) to induce resistance (FIG. 3). When given alone, r-aFGF had no effect whereas r-bFGF induced a concentration-dependent resistance. […]

PC3 tumor cells = assay: Doubling time of exponentially growing cells; type: cell-based, human; settings: treatment with r-bFGF
rat tumor cells = assay: Doubling time of exponentially growing cells; type: cell-based; settings: treatment with r-bFGF
[2] = tested on: Human prostate PC3 tumor cells; assay: aFGF/bFGF-induced resistance and reversal by suramin, sulforhodamine B assay; type: cell-based
Method: The experimental conditions are described briefly below. […] Cell number was measured using the sulforhodamine B assay which measures the total protein concentration. […] The FGF-induced resistance was dependent on the FGF concentrations, with a higher resistance at higher FGF concentrations.

[3] = tested on: human leukemic cell line CCRF-CEM; assay: FGF-induced resistance to fludarabine, MTT assay; type: cell-based; settings: 96 h, 96 hour treatment, read-out: concentration required to produce 50%
[4] = no suramin, relative to control

bFGF: basic Fibroblast Growth Factor used for treatment of PC3 cells
induction of expression of FSC-1 [1]: 65%
induction of expression of FSC-2 [1]: 300%
induction of expression of FSC-3 [1]: 40%

r-aFGF: human recombinant aFGF, identical to the 14 kDa human aFGF except for the extra methionine at the amino terminus
amplification of the r-bFGF effect by r-aFGF (Human prostate PC3): more than 50 fold
induction of resistance (rat MAT-LyLu cells; added to CM depleted of both aFGF and bFGF): did not induce resistance

r-bFGF: human recombinant bFGF, identical to the 18 kDa human bFGF except for the extra methionine at the amino terminus
doubling time, unchanged by treatment (PC3 tumor cells): 24 h
doubling time, unchanged by treatment (rat tumor cells): 17 h
concentration needed relative to the endogenous bFGF concentration in the native CM (rat MAT-LyLu cells; 50 ng/ml versus about 0.9 ng/ml): 55 fold
concentration of exogenous r-bFGF needed to restore the resistance (rat MAT-LyLu cells; CM depleted of both aFGF and bFGF): 50 ng/mL

Nc1nc(F)nc2c1ncn2[C@@H]1O[C@H](CO)[C@@H](O)[C@@H]1O [Fludarabine]
IC50 ([2]; Homo sapiens, read-out: IC50, Control (drug treatment only, without FGF treatment), No suramin, drug 96 hours): 5.15 µM
IC50 ([2]; Homo sapiens, read-out: IC50, aFGF 0.3 ng/ml + bFGF 1 ng/ml, No suramin, FGF pretreatment 96 hours, drug 96 hours): 13.5 µM
IC50 ([2]; Homo sapiens, read-out: IC50, aFGF 1 ng/ml + bFGF 3 ng/ml, No suramin, FGF pretreatment 96 hours, drug 96 hours): 21.9 µM
Resistance, Folds, aFGF 0.3 ng/ml + bFGF 1 ng/ml [2, 4]: 2.61 Folds
Resistance, Folds, aFGF 1 ng/ml + bFGF 3 ng/ml [2, 4]: 4.25 Folds
IC50 ([2]; read-out: IC50, Control (without FGF treatment), Suramin, 15 μM, drug 96 hours with 15 μM suramin): 5.2 µM
IC50 ([2]; read-out: IC50, aFGF 0.3 ng/ml + bFGF 1 ng/ml, With suramin, FGF pretreatment 96 hours, drug 96 hours with 15 micromolar suramin): 4.69 µM
IC50 ([2]; read-out: IC50, aFGF 1 ng/ml + bFGF 3 ng/ml, With suramin, FGF pretreatment 96 hours, drug 96 hours with 15 micromolar suramin): 5.85 µM
IC50 ([3]; absence of FGF): 4 µM
IC50 ([3]; r-aFGF (1 ng/ml) and r-bFGF (3 ng/ml)): 6 µM
